Structures can show the parent of a compound that is named as a salt.
Experiments:
P. mirabilis = assay: In vitro glass “bladder” model of catheter encrustation; format: cell-based, Proteus mirabilis; conditions: for crystalline biofilm formation / Magnesium and phosphorus precipitation on catheter segments (ICP-OES) / catheter biofilm biomass (crystal violet) vs untreated P. mirabilis: 24 h; for crystalline biofilm formation: alone: 1.25 mM AHA, 12.5 mM histamine, 12.5 mM 4-imidazole acetate; for P. mirabilis CFUs in effluent over time / urease-mediated pH increase: tested individually; for urease-mediated pH increase: dose response
Procedure: A Foley catheter is inserted aseptically into the vessel through an opening at the base, the balloon is inflated, and the catheter is attached to a catheter drainage bag (Fig. 7A). The “bladder” is supplied with sterile AUM at a physiologically relevant flow rate via peristaltic pump from a media reservoir, the “kidney” (Fig. 7A). An initial bacterial inoculum of 10^8 CFU of P. mirabilis was added to the AUM in the “bladder” inner chamber to model robust bacteriuria, followed by initiation of flow (Fig. 7B). The performance of urease-dampening metabolites was evaluated as a reduction in 1) effluent AUM pH over the 24 h study period, and 2) crystalline biofilm formation and ion precipitation on catheter segments 24 h post inoculation. Urease-dampening metabolites and AHA were introduced into the system by direct dissolution into the AUM reservoirs. For each study, both positive (untreated P. mirabilis) and negative (untreated P. mirabilis urease negative mutant) controls were included. Effluent urine samples were collected at 0, 3, 6, 9, 12 and 24 h post inoculation. This preclinical model of catheter encrustation was modified to assess whether prophylactic administration of urease-dampening metabolites increases efficacy of antimicrobials against catheter biofilms, as outlined in Fig. 9A. Each experiment was performed in triplicate. Full details of experimental set up, sample collection, and processing are provided below and in Supplementary Materials.
A previously described glass “bladder” model was used, in which a 500 mL water-jacketed glass vessel is maintained at 37 °C via a circulating water bath, a Foley catheter is inserted and inflated, and artificial urine medium (AUM) is supplied into the “bladder” at a constant flow rate (0.75-1.0 mL/min) through a peristaltic pump[55],[56]. For consistency with the in vitro urease activity assays and the physiologic range of urea in healthy human urine, AUM was supplemented with 500 mM urea[57]. Urease-dampening metabolites of interest were directly dissolved in AUM 500 mM urea, adjusted to a pH of 5.8, and filter sterilized via a 0.2μm filter. “Bladders” were inoculated with 10^8 CFUs of P. mirabilis. Samples were collected from the catheter port at 0, 3, 6, 9, 12, and 24 hours to monitor pH and bacterial CFUs. Catheters segments were processed for CFUs, crystal violet staining of biofilm biomass, and ion composition at 24 h. Full details are provided in the Supplementary Methods.
236 and the segments were air dried for 15 min. Catheter segments were stained with 1.0 ml 0.1%
237 crystal violet for 10 min, washed by gentle dunking in 1X phosphate-buffered saline (PBS) to
238 remove excess stain, and solubilized in a microcentrifuge tube containing 750μL of 1% SDS
239 95% ethanol and vortexed for 5 minutes. Crystal violet absorbance (OD570) was measured in a
240 BioTek Synergy H1 microplate reader and blanked using cell-free control wells for each biofilm
243 Catheter segment biofilm viability. Catheter segments were washed by gentle dunking in 1X
244 phosphate-buffered saline (PBS) to remove any remaining planktonic bacteria and residual AUM
245 from the catheter lumen. Catheter segments were then placed in a microcentrifuge tube
246 containing 1mL of 1X PBS and vortexed for 5 minutes to solubilize the biofilm. Samples
247 underwent serial 10-fold dilutions and were spiral plated (Eddy Jet 2; Neutec Group Inc.,
248 Farmingdale, NY) onto low-salt LB agar for enumeration of CFU using a ProtoCOL 3 automated
249 colony counter (Synbiosis).
251 Catheter segment elemental composition. Catheter segments were placed in a microcentrifuge

[1] = set-up: method as in PMID 9792207; conditions: intraperitoneal injections; cited from earlier work
[2] = set-up: method as in PMID 9792207; conditions: higher doses, four h post intraperitoneal administration; cited from earlier work
P. stuartii BE2467 = assay: Growth and viability of P. stuartii in dampening metabolites; format: cell-based, Providencia stuartii
Procedure: (§1) 478 Supplementary Figure 20. Growth of M. morganii, P. stuartii and UTI MRSA incubated in
(§2) 479 dampening metabolites. M. morganii TA43 (A,D,G), P. stuartii BE2467(B,E,H), UTI MRSA
(§3) 480 (C,F,I) were incubated in urease dampening metabolites to assess impact on growth. Bacteria
(§4) 481 were cultured for ~18 hours in LB (Mm and Ps) or BHI (MRSA) broth, then diluted 1:100 into
(§5) 482 fresh broth with (A-C) the highest concentrations of dampening metabolites assessed for urease
(§6) 483 inhibition or (D-F) serial dilutions of D-imidazole lactate. Bacterial suspensions were incubated
(§7) 484 at 37 °C with double-orbital shaking, and OD600 was measured every 15 minutes for 18 hours.
(§8) 485 Error bars represent mean ± standard deviation (SD) from at least 3 technical replicates, and
(§9) 486 graphs are representative of 3 independent biologic experiments. (G-I) Viability of incubated in
(§10) 487 Mm, Ps or MRSA incubated in serial dilutions of D-imidazole lactate. Overnight cultures were
(§11) (1 picture or pasted object on this page, not shown here)
(§12) 488 subcultured to mid log phase, washed in potassium phosphate buffer, and diluted 1:10 in
(§13) 489 potassium phosphate buffer with and without D-imidazole lactate. Samples (n=3) were incubated
(§14) 490 at 37°C with aeration for one hour then plated and enumerated for colony forming units (CFU).

UTI MRSA = assay: Growth and viability of UTI MRSA in dampening metabolites; format: cell-based, Staphylococcus aureus
Procedure: as §1, §2, §3, §4, §5, §6, §7, §8, §9, §10, §11, §12, §13, §14

[3] = test system: isolated guinea pig bladders; conditions: cited from earlier work
[4] = alone: 5 mM AHA, 25 mM histamine, 25 mM 4-imidazole acetate
[5] = alone: 5 mM AHA, 25 mM histamine, 25 mM 4-imidazole acetate, nucleation point ~ pH 8
[6] = incubation in potassium phosphate, CFU

Compound | crystalline biofilm formation (P. mirabilis) | Magnesium and phosphorus precipitation on catheter segments (ICP-OES) (P. mirabilis; [4]) | catheter biofilm biomass (crystal violet) vs untreated P. mirabilis (P. mirabilis; [4]) | pH of AUM collected from “bladders” over 24 h (P. mirabilis; alone, lower concentrations) | pH of AUM collected from “bladders” over 24 h (P. mirabilis; [5]) | P. mirabilis CFUs in effluent over time (P. mirabilis) | urease-mediated pH increase (P. mirabilis) | effects in mice [1] | effects in rats [2] | growth of P. stuartii (P. stuartii BE2467; LB broth) | antimicrobial activity against P. stuartii BE2467 (P. stuartii BE2467; [6]) | growth of UTI MRSA (UTI MRSA; BHI broth) | antimicrobial activity against UTI MRSA (UTI MRSA; [6]) | reduction in CFUs of UTI MRSA (UTI MRSA; one h incubation in potassium phosphate buffer) | response of isolated guinea pig bladders [3]
Cl.O=C(O)Cc1cnc[nH]1 [4-imidazole acetate, 2-(1H-Imidazol-5-yl)acetic acid hydrochloride] | no impact on crystalline biofilm formation | reduced, although the reduction was not statistically significant | significantly reduced biofilm biomass | failed to restrict pH | never surpassed the nucleation point | no meaningful differences between CFUs over time | perturbed urease-mediated pH increase in a dose-dependent manner | sleep-like state and a decrease in body temperature | seizures | – | – | – | – | – | –
O.O=C(O)[C@H](O)Cc1cnc[nH]1 [D-imidazole lactate, D-imidazolelactic acid hydrate] | – | – | – | – | – | – | – | – | – | perturbed growth | robust antimicrobial activity | perturbed growth | less-pronounced antimicrobial activity | one log reduction | –
NCCc1c[nH]cn1 [Histamine, histamine dihydrochloride] | no impact on crystalline biofilm formation | reduced, although the reduction was not statistically significant | significantly reduced biofilm biomass | failed to restrict pH | never surpassed the nucleation point | no meaningful differences between CFUs over time | perturbed urease-mediated pH increase in a dose-dependent manner | – | – | – | – | – | – | – | induce a contractile response

— publication PMC12583827, “Harnessing microbial-derived metabolites in the urinary tract to prevent infection induced catheter encrustation” (Nature Communications, 2025)
